Laboratory results: patent US6734181B2, “Pyrrolopyridazine compounds” (Sankyo Company, Limited, priority 2000, dated 2004)

Tests used:
gastric acid secretion = test: Test for inhibition on gastric acid secretion in rats (pylorus ligation); format: in vivo; conditions: pylorus-ligated rats, orally administered, four hours after ligation
Procedure: Test for Inhibition on Gastric Acid Secretion in Rats
After a group of rats was fasted overnight, they were subjected to midline abdominal incision and their pylorus was ligated under anesthesia with ether. The stomach and duodenum were returned to their original positions in the body, followed by closing at the abdominal incision part. A test compound (0.3 to 10 mg/ml) was suspended in an aqueous solution containing 0.5% of sodium carboxymethylcellulose and 0.4% of Tween 80 (trade mark). The resulting suspension (1 ml/kg of body weight) was orally administered to the rats through a stomach tube. Four hours after the ligation, the rats were sacrificed by inhalation of CO2 gas. They were subjected to abdominal incision to remove their stomach. The content of the stomach was collected in a glass-made graduated centrifuge tube. After centrifugation, the amount (ml) of the supernatant and the amount (ml) of the precipitate were measured. The precipitate of the amount exceeding 0.5 ml was regarded as feces and excluded from the data. The supernatant ([…]) was poured into a test tube. Distilled water (4 ml) was added to the solution, and the solution was titrated to pH 7.0 with 0.01 N sodium hydroxide. […] Each parameter was calculated in accordance with the following equations: […]

[1] = molecular target: T1, proton potassium-adenosine triphosphatase (H+.K+-ATPase) (Sus scrofa, UniProt P19156); test: Test on activity of proton potassium-adenosine triphosphatase (H+.K+-ATPase); format: biochemical; conditions: swine gastric mucosal microsomal fraction, pH 6.85, 37° C.; read-out: 50% inhibitory concentration (IC50) against proton potassium-adenosine triphosphatase (converted)
T1 construct: A microsomal fraction prepared in accordance with the method of Sachs, et al; from tissue; host or cells: swine gastric mucosa, microsomal fraction (density gradient ultracentrifugation)
Procedure: Test on Activity of Proton•potassium-adenosine Triphosphatase (H^+.K^+-ATPase) A microsomal fraction prepared in accordance with the method of Sachs, et al. [J. Bio. Chem., 251, 7690(1976)] by homogenizing a fresh gastric mucosal layer of swine and then subjecting the homogenate to density gradient ultra centrifugation was employed as a proton potassium-adenosine triphosphatase preparation. A solution (10 μl) of a test compound dissolved in dimethyl sulfoxide was added to 0.75 ml of a 70 mM tris hydrochloric acid buffer (5 mM magnesium chloride, 20 mM potassium chloride, pH=6.85) containing 30 to 80 μg/ml, in terms of the protein concentration, of the enzyme preparation. The mixture was incubated with 200 times/min of agitation at 37° C. for 45 minutes. The enzymatic reaction was started by adding 0.25 ml of an 8 mM solution of disodium adenosine triphosphate. After this enzymatic reaction was continued for 20 minutes, 1 ml of a 10% trichloroacetic acid—activated charcoal (100 mg) solution was added to terminate the reaction. […] The amount of inorganic phosphoric acid in a reaction mixture free from potassium chloride was also measured. By subtracting this amount from the amount of inorganic phosphoric acid in the presence of potassium chloride, protonpotassium-adenosine triphosphatase activity (H^+.K^+-ATPase) was determined. […]

[2] = system: Helicobacter pylori strains 9470, 9472 and 9474; test: Antibacterial action against Helicobacter pylori (MIC, agar dilution); format: cell-based; conditions: 72 h, 37° C., 3 days, microaerophilic conditions, read-out: MIC (Minimum Inhibitory Concentration)
Procedure: Antibacterial Action Against Helicobacter Pylori The antibacterial activity of the compound of the invention was evaluated by using Helicobacter pylori strains 9470, 9472 and 9474 and determining MIC (Minimum Inhibitory Concentration) of the compound of the invention against Helicobacter pylori. Helicobacter pylori was cultured by plating for 4 days. A medium was prepared by dissolving Brain Heart Infusion Agar (product of Difco Laboratories) in a prescribed amount of distilled water, sterilizing in an autoclave, adding equine blood (product of Nippon Seibutsu Zairyo) to give a concentration thereof of 7% and then solidifying the mixture. Under microaerophilic conditions, Helicobacter pylori which had been cultured at 37° C. for 4 days was suspended in physiological saline to give its viable count of about 10^8 CFU/ml. The suspension was then diluted to 100 times and a portion (about 10 μl) of the diluted suspension was inoculated in a medium for measuring MIC. The medium employed for measuring MIC has the same composition as the preculture medium. A compound of this invention was dissolved in dimethyl sulfoxide (DMSO) and two-fold serial dilutions were made with sterilized water. After mixing the solution and the medium in a ratio of 1:99, a solidified product in the Petri dish was employed as an MIC measuring medium. […]

T1 sequence (P19156 2-1034 limits assumed): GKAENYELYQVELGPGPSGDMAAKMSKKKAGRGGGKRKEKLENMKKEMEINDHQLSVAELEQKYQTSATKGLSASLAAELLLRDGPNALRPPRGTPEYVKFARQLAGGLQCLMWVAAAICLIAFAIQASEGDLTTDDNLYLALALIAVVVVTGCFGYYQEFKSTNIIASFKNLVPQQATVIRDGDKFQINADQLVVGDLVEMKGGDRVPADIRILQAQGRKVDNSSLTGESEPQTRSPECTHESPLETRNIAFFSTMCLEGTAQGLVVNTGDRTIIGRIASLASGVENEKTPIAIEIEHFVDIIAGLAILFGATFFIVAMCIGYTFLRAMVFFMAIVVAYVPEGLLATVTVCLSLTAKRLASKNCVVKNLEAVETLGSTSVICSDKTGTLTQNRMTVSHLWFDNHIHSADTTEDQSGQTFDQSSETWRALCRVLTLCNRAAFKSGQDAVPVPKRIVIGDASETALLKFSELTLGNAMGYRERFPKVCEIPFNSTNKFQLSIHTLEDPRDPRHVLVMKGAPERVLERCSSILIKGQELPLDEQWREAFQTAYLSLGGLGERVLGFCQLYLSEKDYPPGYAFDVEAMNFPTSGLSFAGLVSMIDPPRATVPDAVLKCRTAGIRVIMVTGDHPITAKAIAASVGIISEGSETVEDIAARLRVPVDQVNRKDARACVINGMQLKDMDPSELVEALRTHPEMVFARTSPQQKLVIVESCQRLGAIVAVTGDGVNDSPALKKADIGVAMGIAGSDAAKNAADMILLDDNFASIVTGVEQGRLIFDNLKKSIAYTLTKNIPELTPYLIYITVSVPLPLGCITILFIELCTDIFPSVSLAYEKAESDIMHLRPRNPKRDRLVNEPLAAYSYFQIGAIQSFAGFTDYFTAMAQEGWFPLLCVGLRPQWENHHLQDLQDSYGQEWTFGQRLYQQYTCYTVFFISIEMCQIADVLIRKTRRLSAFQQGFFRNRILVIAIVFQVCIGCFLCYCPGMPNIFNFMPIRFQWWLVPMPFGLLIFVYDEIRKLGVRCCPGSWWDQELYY
T1 sequence (P18434 whole entry partner): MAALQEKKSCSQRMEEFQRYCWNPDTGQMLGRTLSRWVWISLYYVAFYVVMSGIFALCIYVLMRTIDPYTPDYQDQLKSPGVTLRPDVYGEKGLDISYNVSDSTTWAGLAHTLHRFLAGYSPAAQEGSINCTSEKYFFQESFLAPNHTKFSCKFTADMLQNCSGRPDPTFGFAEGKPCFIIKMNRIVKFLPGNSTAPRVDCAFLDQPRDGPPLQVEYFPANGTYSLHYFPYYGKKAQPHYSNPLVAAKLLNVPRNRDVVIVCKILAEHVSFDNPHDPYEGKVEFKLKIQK

Question: Which results are given for Cc1c(CO)c2cnnc(OCc3ccc(F)cc3)c2n1C[C@H]1C[C@@H]1C [Example 2, 7-(4-Fluorobenzyloxy)-3-hydroxymethyl-2-methyl-1-[(1S,2S)-2-methylcyclopropylmethyl]pyrrolo[2,3-d]-pyridazine]?
Answer: melting point: 128 to 129 °C; 50% inhibitory dose (ID50), gastric acid output (gastric acid secretion): less than 10 mg/kg; IC50 [1]: 42.2 nM; MIC [2]: < 12.5 µg/mL

Question: With Cc1c(C=O)c2cnnc(OCc3ccc(F)cc3)c2n1C[C@H]1C[C@@H]1C as the compound, how does the melting point read?
Answer: 138.5 to 139.5 °C

Question: Which melting point does the source give for CC(=O)OCc1c(C)n(C[C@H]2C[C@@H]2C)c2c(OCc3ccc(F)cc3)nncc12 [Example 1, 3-Acetoxymethyl-7-(4-fluorobenzyloxy)-2-methyl-1-[(1S,2S)-2-methylcyclopropylmethyl]pyrrolo[2,3-d]-pyridazine] here?
Answer: 122 to 123 °C
